Measured values as given in US6720322B2, “Butyne diol derivatives” (Actelion Pharamceuticals Ltd., priority 1999, dated 2004).

What was measured:
[1] = molecular target: T1, human recombinant ETA receptors (Homo sapiens, UniProt P25101); assay: Inhibition of [125I]ET-1 binding to membranes of CHO cells expressing human recombinant ETA receptors; further: 2.5% DMSO
T1 construct: expressed in transfected cells; host or cells: CHO cells (microsomal membranes)
T1 sequence (P25101 21-427): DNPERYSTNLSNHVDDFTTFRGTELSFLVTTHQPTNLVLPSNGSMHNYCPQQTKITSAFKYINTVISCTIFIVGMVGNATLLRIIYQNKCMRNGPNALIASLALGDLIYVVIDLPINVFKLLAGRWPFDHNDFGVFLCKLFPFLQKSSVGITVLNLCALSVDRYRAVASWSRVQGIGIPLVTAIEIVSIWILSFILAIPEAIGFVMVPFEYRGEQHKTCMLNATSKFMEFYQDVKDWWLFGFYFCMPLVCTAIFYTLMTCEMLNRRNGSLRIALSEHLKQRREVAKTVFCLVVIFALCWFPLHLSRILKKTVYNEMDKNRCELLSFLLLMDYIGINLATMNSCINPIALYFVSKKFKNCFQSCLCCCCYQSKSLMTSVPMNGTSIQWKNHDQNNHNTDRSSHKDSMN
Description: (§1) 1) Inhibition of Endothelin Binding to Membranes from CHO Cells Carrying Human ET Receptors:
(§2) For competition binding studies, membranes of CHO cells expressing human recombinant ETA or ETB receptors were used.
(§3) The assay was performed in 200 uL 50 mM Tris/HCl buffer, pH 7.4, including 25 mM MnCl2, 1 mM EDTA and 0.5% (w/v) BSA in polypropylene microtiter plates. […] After two h, the membranes were filtered on filterplates containing GF/C filters (Unifilterplates from Canberra Packard S.A. Zürich, Switzerland). To each well, 50 uL of scintillation cocktail was added (MicroScint 20, Canberra Packard S.A. Zürich, Switzerland) and the filter plates counted in a microplate counter (TopCount, Canberra Packard S.A. Zürich, Switzerland).
(§4) All the test compounds were dissolved, diluted and added in DMSO.

[2] = molecular target: T2, human recombinant ETB receptors (Homo sapiens, UniProt P24530); assay: Inhibition of [125I]ET-1 binding to membranes of CHO cells expressing human recombinant ETB receptors; further: 2.5% DMSO
T2 construct: expressed in transfected cells; host or cells: CHO cells (microsomal membranes)
T2 sequence (P24530 27-442): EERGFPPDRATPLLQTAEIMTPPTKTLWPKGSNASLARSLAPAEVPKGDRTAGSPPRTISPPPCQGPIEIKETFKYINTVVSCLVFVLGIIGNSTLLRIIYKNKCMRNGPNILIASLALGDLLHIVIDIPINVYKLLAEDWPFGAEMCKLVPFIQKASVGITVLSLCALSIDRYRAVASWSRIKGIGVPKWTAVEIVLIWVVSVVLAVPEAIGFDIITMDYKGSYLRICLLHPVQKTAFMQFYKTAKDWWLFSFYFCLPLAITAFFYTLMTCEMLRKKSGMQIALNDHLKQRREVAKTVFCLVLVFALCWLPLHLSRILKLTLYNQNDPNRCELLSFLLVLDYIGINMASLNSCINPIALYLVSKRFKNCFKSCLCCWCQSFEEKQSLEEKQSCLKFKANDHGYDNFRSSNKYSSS
Description: as §1, §2, §3, §4

[3] = molecular target: T3, rat tracheal rings (ETB receptors) (Rattus norvegicus, UniProt P21451); assay: Inhibition of sarafotoxin S6c-induced contraction of isolated rat tracheal rings; format: cell-based; settings: contraction induced by sarafotoxin S6c, 10 min incubation with the test compound; read-out: pA2 trachea (converted)
T3 construct: The thoracic aorta or trachea were excised, dissected and cut in 3-5 mm rings; from tissue; host or cells: tracheal rings of adult Wistar rats, epithelium removed
T3 sequence (P21451 27-442): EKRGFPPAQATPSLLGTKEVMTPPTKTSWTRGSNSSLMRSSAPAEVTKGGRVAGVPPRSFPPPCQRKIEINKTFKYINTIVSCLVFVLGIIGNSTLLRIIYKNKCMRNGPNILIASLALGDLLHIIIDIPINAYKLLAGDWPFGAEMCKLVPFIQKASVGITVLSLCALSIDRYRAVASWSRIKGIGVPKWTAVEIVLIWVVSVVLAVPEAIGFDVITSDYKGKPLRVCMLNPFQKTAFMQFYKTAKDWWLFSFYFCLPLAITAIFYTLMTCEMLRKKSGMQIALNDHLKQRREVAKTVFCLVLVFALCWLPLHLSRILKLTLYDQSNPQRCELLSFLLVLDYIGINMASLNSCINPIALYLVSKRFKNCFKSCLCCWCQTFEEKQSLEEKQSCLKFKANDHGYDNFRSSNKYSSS
Description: 2) Inhibition of Endothelin-induced Contractions on Isolated Rat Aortic Rings (ETA Receptors) and Rat Tracheal Rings (ETB Receptors)
The functional inhibitory potency of the endothelin antagonists was assessed by their inhibition of the contraction induced by endothelin-1 on rat aortic rings (ETA receptors) and of the contraction induced by sarafotoxin S6c on rat tracheal (ETB receptors). Adult Wistar rats were anesthetized and exsanguinated. The thoracic aorta or trachea were excised, dissected and cut in 3-5 mm rings. The endothelium/epithelium was removed by gentle rubbing of the intimal surface. […] The rings were connected to force transducers and isometric tension was recorded (EMKA Technologies SA, Paris, France). The rings were stretched to a resting tension of 3 g (aorta) or 2 g (trachea). […] The functional inhibitory potency of the test compound was assessed by calculating the concentration ratio, i.e. the shift to the right of the EC50 induced by different concentrations of test compound. EC50 is the concentration of endothelin needed to get a half-maximal contraction, pA2 is the negative logarithm of the antagonist concentration which induces a two-fold shift in the EC50 value.

[4] = molecular target: T4, rat aortic rings (ETA receptors) (Rattus norvegicus, UniProt P26684); assay: Inhibition of endothelin-1-induced contraction of isolated rat aortic rings
T4 sequence (P26684 21-426): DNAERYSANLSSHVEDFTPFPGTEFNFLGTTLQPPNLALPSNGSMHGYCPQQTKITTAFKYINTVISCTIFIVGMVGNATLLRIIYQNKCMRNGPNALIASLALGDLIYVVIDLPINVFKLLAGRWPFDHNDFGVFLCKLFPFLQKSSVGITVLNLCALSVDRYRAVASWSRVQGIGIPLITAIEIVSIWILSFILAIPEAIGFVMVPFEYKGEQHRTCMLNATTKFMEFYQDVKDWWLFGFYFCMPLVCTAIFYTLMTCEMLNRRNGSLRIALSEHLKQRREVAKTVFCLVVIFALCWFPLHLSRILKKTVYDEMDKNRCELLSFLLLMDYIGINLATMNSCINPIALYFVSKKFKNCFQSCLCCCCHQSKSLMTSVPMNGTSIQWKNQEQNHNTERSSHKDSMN

Structure (SMILES)	IC50 [1] [nM]	IC50 [2] [nM]	Kb [3] [nM]	Kb [4] [nM]	melting point [°C]
Cc1ccc(-c2c(NS(=O)(=O)c3ccc(C(C)C)cn3)nc(-c3ccncc3)nc2OCC#CCO)cc1 [Example 11d, 5-isopropyl-N-[6-(4-hydroxy-2-butynyloxy)-5-(p-tolyl)-2-(4-pyridyl)-4-pyrimidinyl]-2-pyridine sulfonamide]	49	97	93.3	89.1	–
COc1cc(OC)nc(OCC#CCOc2nc(-c3ccncc3)nc(NS(=O)(=O)c3ccc(C(C)C)cn3)c2Oc2ccccc2OC)n1 [Example 18, 5-isopropyl-N-[6-(4-(4,6-dimethoxy-2-pyrimidinyloxy)-2-butynyloxy)-5-(o-methoxyphenoxy)-2-(4-pyridyl)-4-pyrimidinyl]-2-pyridine sulfonamide]	79	36	–	–	–
COc1ccccc1Oc1c(NS(=O)(=O)c2ccc(C(C)(C)C)cc2)nc(-c2ccncc2)nc1OCC#CCOc1ncccn1 [Example 19, 4-tert.-butyl-N-[6-(4-(2-pyrimidinyloxy)-2-butynyloxy)-5-(o-methoxyphenoxy)-2-(4-pyridyl)-4-pyrimidinyl]-benzene sulfonamide]	112	45	24	> 10000	–
COc1cc(OC)nc(OCC#CCOc2nc(-c3ccncc3)nc(NS(=O)(=O)c3ccc(C(C)(C)C)cc3)c2Oc2ccccc2OC)n1 [Example 21, 4-tert.-butyl-N-[6-(4-(4,6-dimethoxy-2-pyrimidinyloxy)-2-butynyloxy)-5-(o-methoxyphenoxy)-2-(4-pyridyl)-4-pyrimidinyl]-benzene sulfonamide]	230	44	–	–	–
COc1ccccc1Oc1c(NS(=O)(=O)c2ccc(C(C)C)cn2)nc(-c2ccncc2)nc1OCC#CCOC(=O)Nc1cccc(C)c1 [Example 54, m-tolyl-carbamic acid 4-[6-(5-isopropyl-pyridine-2-sulfonylamino)-5-(2-methoxy-phenoxy)-2-pyridin-4-yl-pyrimidin-4-yloxy]-but-2-ynyl ester]	–	–	–	–	163 to 165
COc1ccccc1Oc1c(NS(=O)(=O)c2ccc(C(C)C)cn2)nc(C)nc1OCC#CCOC(=O)Nc1ccccc1 [Example 70]	94	375	–	–	–
COCC#CCOc1nc(N2CCOCC2)nc(NS(=O)(=O)c2ccc(C(C)C)cn2)c1Oc1ccccc1OC [Example 94, 5-isopropyl-N-[6-(4-methoxy-2-butynyloxy)-5-(o-methoxyphenoxy)-2-(N-morpholino)-4-pyrimidinyl]-2-pyridine sulfonamide]	13	107	–	–	–
